Reference: patent US20040162286A1, “Substituted 6-(2-tolyl)-triazolopyrimidines as fungicides” (priority 2001, published 2004)

system: Blumeria graminis f. sp. tritici; experiment: Fungicidal control of powdery mildew on wheat, protective spray; format: in vivo; details: 63 ppm active ingredient, assessed after 7 days, untreated plants infected to 85%
Description: The active compounds, separately or together, were formulated as a 10% emulsion in a mixture of 70% by weight of cyclohexanone, 20% by weight of Nekanil® LN (Lutensol® AP6, wetting agent having emulsifying and dispersant action based on ethoxylated alkylphenols) and 10% by weight of Wettol® EM (nonionic emulsifier based on ethoxylated castor oil) and diluted with water to the desired concentration. The first fully developed leaves of pot grown wheat of the variety “Kanzler” were sprayed to run-off with an aqueous suspension, containing the concentration of active ingredient or their mixture mentioned in the table below, prepared from a stock solution containing 10% of the active ingredient, 85% cyclohexanone and 5% emulsifier. The next day the treated plants were inoculated with spores of Blumeria graminis f. sp. tritici by shaking heavily infestated stock plants over the treated pots. After cultivation in the greenhouse for 7 days at 22-26° C. and a relative humidity between 60 to 90% the extent of fungal attack on the leaves was visually assessed as % diseased leaf area. The test was conducted as described in Comparison trial 2.

Q: How did the “infection (% diseased leaf area)” value turn out when `Cc1ccccc1-c1c(Cl)nc2ncnn2c1NC(C)C(F)(F)F` (centres unmarked) [Compound A] was run?
A: Its value is 30%.

system: Plasmopara viticola; experiment: Fungicidal control of grape downy mildew (Comparison Trial 3, inoculation the next day); format: in vivo; details: 250 ppm active ingredient; grape cuttings; inoculated next day; untreated plants infected to 80%
Procedure: The active compounds, separately or together, were formulated as a 10% emulsion in a mixture of 70% by weight of cyclohexanone, 20% by weight of Nekanil® LN (Lutensol® AP6, wetting agent having emulsifying and dispersant action based on ethoxylated alkylphenols) and 10% by weight of Wettol® EM (nonionic emulsifier based on ethoxylated castor oil) and diluted with water to the desired concentration. Grape cuttings of the cultivar “Müller-Thurgau” were grown in pots to the 4 to 5 leaf stage. These plants were sprayed to run-off with an aqueous suspension, containing the concentration of active ingredient or their mixture mentioned in the table below, prepared from a stock solution containing 10% of the active ingredient, 85% cyclohexanone and 5% emulsifier. The plants were allowed to air-dry. The next day they were inoculated with an aqueous spore suspension of Plasmopara viticola by spraying it at the lower leaf-side. Then the trial plants were immediately transferred for 24 h to a humid chamber with 22-24° C. and a relative humidity close to 100%. For a period of 5 days, cultivation followed in a greenhouse at 20-25° C. and a relative humidity about 50-80%. To stimulate the outbreak of the disease symptoms, the plants were transferred to a humid chamber again for 24 hours. Then the extent of fungal attack on the lower leaf surface was visually assessed as % diseased leaf area.

Q: For `Cc1ccccc1-c1c(Cl)nc2ncnn2c1NC(C)C(F)(F)F` (centres unmarked) [Compound A], which “infection (% diseased leaf area, lower leaf surface)” value is on record?
A: The value was 80%.

system: Alternaria solani; experiment: Fungicidal control of early blight on tomatoes, protective spray; format: in vivo; details: 63 ppm active ingredient; tomato plants; assessed after 6 days; untreated plants infected to 90%
Procedure: The active compounds, separately or together, were formulated as a 10% emulsion in a mixture of 70% by weight of cyclohexanone, 20% by weight of Nekanil® LN (Lutensol® AP6, wetting agent having emulsifying and dispersant action based on ethoxylated alkylphenols) and 10% by weight of Wettol® EM (nonionic emulsifier based on ethoxylated castor oil) and diluted with water to the desired concentration. Young seedlings of tomato plants of the variety “Groβe Fleischtomate St. Pierre” were grown in pots to the 2 to 4 leaf stage. These plants were sprayed to run-off with an aqueous suspension, containing the concentration of active ingredient mentioned in the table below, prepared from a stock solution containing 10% of the active ingredient, 85% cyclohexanone and 5% emulsifier. The next day, the treated plants were inoculated with an aqueous suspension of Alternaria solani containing 0.2×10^6 spores per ml. Then the trial plants were immediately transferred to a humid chamber. After 6 days at 20 to 23° C. and a relative humidity close to 100%, the extent of fungal attack on the leaves was visually assessed as % diseased leaf area. The test was conducted as described in Comparison trial 1.

Q: Which “infection (% diseased leaf area)” value does the source give for `Cc1ccccc1-c1c(Cl)nc2ncnn2c1NC(C)C(F)(F)F` (centres unmarked) [Compound A] here?
A: Its value is 15%.

same assay, conditions: 250 ppm active ingredient; tomato plants; untreated plants infected to 90%

Q: With `Cc1cc(F)ccc1-c1c(Cl)nc2ncnn2c1NC(C)C(C)(C)C` (racemic) [I-41] as the compound, how does the “infection (% diseased leaf area)” value read?
A: The value was “no infection”.

Q: Which “infection (% diseased leaf area)” value does the source give for `C=C(C)CN(CC)c1c(-c2c(C)cccc2F)c(Cl)nc2ncnn12` [I-7] here?
A: Its value is “no infection”.

Q: How did the “infection (% diseased leaf area)” value turn out when `CCC(C)Nc1c(-c2ccc(F)cc2C)c(Cl)nc2ncnn12` (racemic) [I-35] was run?
A: The value was “no infection”.

Q: Which “infection (% diseased leaf area)” value does the source give for `Cc1cc(Cl)ccc1-c1c(Cl)nc2ncnn2c1N1CCC(C)CC1` [I-66] here?
A: Its value is “no infection”.

Q: Which “infection (% diseased leaf area)” value does the source give for `Cc1cc(F)ccc1-c1c(Cl)nc2ncnn2c1NC(C)C(F)(F)F` (racemic) [I-44] here?
A: Its value is “no infection”.

Q: How did the “infection (% diseased leaf area)” value turn out when `Cc1cccc(F)c1-c1c(Cl)nc2ncnn2c1N1CCC(C)CC1` [I-9] was run?
A: The value was “no infection”.

Q: For `Cc1cc(F)ccc1-c1c(Cl)nc2ncnn2c1NC(C)C(C)C` (racemic) [I-38], which “infection (% diseased leaf area)” value is on record?
A: The value was “no infection”.

Q: Which “infection (% diseased leaf area)” value does the source give for `Cc1cc(F)ccc1-c1c(Cl)nc2ncnn2c1N1CCC(C)CC1` [I-30] here?
A: The value was “no infection”.

Q: With `Cc1cccc(F)c1-c1c(Cl)nc2ncnn2c1NC1CCCC1` [I-10] as the compound, how does the “infection (% diseased leaf area)” value read?
A: Its value is “no infection”.

Q: `Cc1cc(Cl)ccc1-c1c(Cl)nc2ncnn2c1NCC(F)(F)F` [I-83] was tested. Which “infection (% diseased leaf area)” value did it give?
A: The value was “no infection”.

Q: How did the “infection (% diseased leaf area)” value turn out when `C=C(C)CN(CC)c1c(-c2ccc(F)cc2C)c(Cl)nc2ncnn12` [I-28] was run?
A: Its value is “no infection”.
